Data published in article PMC7570694, “Design, Synthesis, and Structure–Activity Relationships of Thiazole Analogs as Anticholinesterase Agents for Alzheimer’s Disease” (Molecules, 2020).

Biological target: BChE (Equus caballus, UniProt P81908)
Test: biochemical
Details: read-out: BChE % Inhibition 10^−3 M, compound at 10^−3 M; mean ± SD
Method: (§1) The reagents and materials used in the enzyme inhibition assay were supplied commercially from Sigma-Aldrich (St. Louis, MO, USA) and Fluka (Steinheim, Germany). The cholinesterase enzyme inhibition procedure was applied as previously reported in our research papers.
(§2) Moreover, the IC50 values were calculated with the help of GraphPad ‘PRISM’ software (version 5.0) by using a dose–response curve achieved by plotting the percentage inhibition versus the log concentration.
(§3) All of the attained 3-((2-(4-(4-(trifluoromethyl)phenyl)thiazol-2-yl)hydrazineylidene)methyl)-substituedphenyl derivatives were investigated with regard to their ability to inhibit the activity of cholinesterase enzymes using the in vitro modified Ellman’s spectrophotometric method previously described.
(§4) Therefore, the IC50 values of the selected compounds and reference agents were calculated.

Chain of BChE (P81908 whole entry): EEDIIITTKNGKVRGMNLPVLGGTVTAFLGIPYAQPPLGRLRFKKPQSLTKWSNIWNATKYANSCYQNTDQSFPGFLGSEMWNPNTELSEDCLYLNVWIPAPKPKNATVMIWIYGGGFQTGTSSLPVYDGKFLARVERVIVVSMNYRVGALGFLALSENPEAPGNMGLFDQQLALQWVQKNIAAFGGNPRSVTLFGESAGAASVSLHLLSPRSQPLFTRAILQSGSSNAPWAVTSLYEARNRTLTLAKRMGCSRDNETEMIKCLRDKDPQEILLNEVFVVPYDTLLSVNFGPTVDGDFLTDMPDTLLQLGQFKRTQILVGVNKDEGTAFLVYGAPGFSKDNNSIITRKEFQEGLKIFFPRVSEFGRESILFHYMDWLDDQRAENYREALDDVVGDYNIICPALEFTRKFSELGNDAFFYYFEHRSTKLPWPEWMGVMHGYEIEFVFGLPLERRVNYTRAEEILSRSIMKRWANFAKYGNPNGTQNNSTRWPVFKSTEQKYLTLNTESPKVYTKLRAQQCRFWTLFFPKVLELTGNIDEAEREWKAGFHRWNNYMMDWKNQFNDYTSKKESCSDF

`COc1ccc(C=NNc2nc(-c3ccc(C(F)(F)F)cc3)cs2)cc1OC` [2g, 2-[2-(3,4-Dimethoxybenzylidene)hydrazineyl]-4-[4-(trifluoromethyl)phenyl]thiazole] and `COc1ccc(C=NNc2nc(-c3ccc(C(F)(F)F)cc3)cs2)cc1O` [2i, 2-Methoxy-5-[(2-{4-[4-(trifluoromethyl)phenyl]thiazol-2-yl}hydrazineylidene)methyl]phenol] cannot be ordered by inhibition at 1000 µM: > 50% for the first, > 50% for the second.

Going from `FC(F)(F)c1ccc(-c2csc(NN=Cc3ccc4c(c3)OCO4)n2)cc1` [2h, 2-[2-(Benzo[1,3]dioxol-5-ylmethylene)hydrazineyl]-4-[4-(trifluoromethyl)phenyl]thiazole] to `COc1ccc(O)c(C=NNc2nc(-c3ccc(C(F)(F)F)cc3)cs2)c1` [2j, 4-Methoxy-2-[(2-{4-[4-(trifluoromethyl)phenyl]thiazol-2-yl}hydrazineylidene)methyl]phenol], the inhibition at 1000 µM rises from 45.8 ± 0.926% to > 50%.

`COc1cc(C=NNc2nc(-c3ccc(C(F)(F)F)cc3)cs2)cc(OC)c1OC` [2k, 4-[4-(Trifluoromethyl)phenyl]-2-[2-(3,4,5-trimethoxybenzylidene)hydrazineyl]thiazole] and `COc1cc(C=NNc2nc(-c3ccc(C(F)(F)F)cc3)cs2)cc(OC)c1O` [2l, 2,6-Dimethoxy-4-[(2-{4-[4-(trifluoromethyl)phenyl]thiazol-2-yl}hydrazineylidene)methyl]phenol] are within error of each other in inhibition at 1000 µM: 40.2 ± 0.902% for the first, 38.7 ± 0.815% for the second.

Same assay, conditions: read-out: BChE % Inhibition 10^−4 M, compound at 10^−4 M; mean ± SD

`COc1ccc(C=NNc2nc(-c3ccc(C(F)(F)F)cc3)cs2)cc1OC` [2g, 2-[2-(3,4-Dimethoxybenzylidene)hydrazineyl]-4-[4-(trifluoromethyl)phenyl]thiazole] and `COc1ccc(C=NNc2nc(-c3ccc(C(F)(F)F)cc3)cs2)cc1O` [2i, 2-Methoxy-5-[(2-{4-[4-(trifluoromethyl)phenyl]thiazol-2-yl}hydrazineylidene)methyl]phenol] are within error of each other in inhibition at 100 µM: 40.4 ± 0.845% for the first, 41.5 ± 0.87% for the second.

Compared with `FC(F)(F)c1ccc(-c2csc(NN=Cc3ccc4c(c3)OCO4)n2)cc1` [2h, 2-[2-(Benzo[1,3]dioxol-5-ylmethylene)hydrazineyl]-4-[4-(trifluoromethyl)phenyl]thiazole], `COc1ccc(O)c(C=NNc2nc(-c3ccc(C(F)(F)F)cc3)cs2)c1` [2j, 4-Methoxy-2-[(2-{4-[4-(trifluoromethyl)phenyl]thiazol-2-yl}hydrazineylidene)methyl]phenol] is higher in inhibition at 100 µM: 34.3 ± 0.738% for the first, 39.6 ± 0.865% for the second.

Compared with `COc1cc(C=NNc2nc(-c3ccc(C(F)(F)F)cc3)cs2)cc(OC)c1OC` [2k, 4-[4-(Trifluoromethyl)phenyl]-2-[2-(3,4,5-trimethoxybenzylidene)hydrazineyl]thiazole], `COc1cc(C=NNc2nc(-c3ccc(C(F)(F)F)cc3)cs2)cc(OC)c1O` [2l, 2,6-Dimethoxy-4-[(2-{4-[4-(trifluoromethyl)phenyl]thiazol-2-yl}hydrazineylidene)methyl]phenol] is lower in inhibition at 100 µM: 25.6 ± 0.633% for the first, 23.2 ± 0.759% for the second.

Biological target: T1, AChE (Electrophorus electricus, UniProt O42275)
T1 sequence (O42275 24-633): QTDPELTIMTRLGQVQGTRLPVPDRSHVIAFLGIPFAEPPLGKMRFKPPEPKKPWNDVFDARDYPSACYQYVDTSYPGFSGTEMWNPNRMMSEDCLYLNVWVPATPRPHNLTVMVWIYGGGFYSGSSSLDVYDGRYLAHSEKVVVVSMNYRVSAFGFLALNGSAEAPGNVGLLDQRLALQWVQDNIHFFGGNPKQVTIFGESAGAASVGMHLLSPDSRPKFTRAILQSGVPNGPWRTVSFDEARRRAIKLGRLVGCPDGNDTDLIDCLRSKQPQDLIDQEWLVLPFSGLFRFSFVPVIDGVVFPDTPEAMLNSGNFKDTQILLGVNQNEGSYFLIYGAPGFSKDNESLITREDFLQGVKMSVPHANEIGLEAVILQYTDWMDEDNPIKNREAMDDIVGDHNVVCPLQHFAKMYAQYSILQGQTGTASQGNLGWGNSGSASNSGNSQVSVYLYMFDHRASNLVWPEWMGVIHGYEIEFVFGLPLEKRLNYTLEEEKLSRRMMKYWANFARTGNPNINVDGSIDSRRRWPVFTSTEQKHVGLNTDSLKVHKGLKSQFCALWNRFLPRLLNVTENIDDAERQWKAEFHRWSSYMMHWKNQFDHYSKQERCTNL
Test: Kinetic studies of AChE inhibition (Lineweaver–Burk plots, substrate ATC)
Assay type: biochemical
Details: Lineweaver–Burk plot; IC50/2, IC50, 2xIC50; ATC 600–18.75 µM
Method: For this purpose, this compound was prepared at different concentrations (IC50, 2xIC50 and IC50/2). […] The Ki values of the compound were easily calculated from the second plot with a common intercept on the x-axis (corresponding to −Ki).
Enzyme kinetics studies were conducted to determine the mechanism of inhibition of AChE using a procedure similar to that of the inhibition assay for cholinesterase enzymes. […] Linear Lineweaver–Burk graphs were used to estimate the type of inhibition of this compound.
According to the Lineweaver–Burk plots, the type of inhibition consists of two general classes: reversible or irreversible.

With `COc1ccc(C=NNc2nc(-c3ccc(C(F)(F)F)cc3)cs2)cc1O` [2i, 2-Methoxy-5-[(2-{4-[4-(trifluoromethyl)phenyl]thiazol-2-yl}hydrazineylidene)methyl]phenol] the “type of inhibition of AChE” value was “reversible and mixed-type”.

Biological target: T1, AChE
Test: AChE inhibition, modified Ellman spectrophotometric method
Assay type: biochemical
Details: not given
Method: as §1, §2, §3, §4

For `COc1ccc(O)c(C=NNc2nc(-c3ccc(C(F)(F)F)cc3)cs2)c1` [2j, 4-Methoxy-2-[(2-{4-[4-(trifluoromethyl)phenyl]thiazol-2-yl}hydrazineylidene)methyl]phenol], the “AChE inhibition profile in words” value was “moderate”.

Same assay, conditions: read-out: AChE % Inhibition 10^-5 M

First: COc1ccc(C=NNc2nc(-c3ccc(C(F)(F)F)cc3)cs2)cc1OC [2g, 2-[2-(3,4-Dimethoxybenzylidene)hydrazineyl]-4-[4-(trifluoromethyl)phenyl]thiazole]
Second: COc1ccc(C=NNc2nc(-c3ccc(C(F)(F)F)cc3)cs2)cc1O [2i, 2-Methoxy-5-[(2-{4-[4-(trifluoromethyl)phenyl]thiazol-2-yl}hydrazineylidene)methyl]phenol]
The inhibition at 10 µM of the first is lower: 81.5% for the first, 86.6% for the second.

With `COc1ccc(O)c(C=NNc2nc(-c3ccc(C(F)(F)F)cc3)cs2)c1` [2j, 4-Methoxy-2-[(2-{4-[4-(trifluoromethyl)phenyl]thiazol-2-yl}hydrazineylidene)methyl]phenol] the inhibition at 10 µM was 76.8%.

Same assay, conditions: read-out: AChE % Inhibition 10^-6 M

Compared with `COc1ccc(C=NNc2nc(-c3ccc(C(F)(F)F)cc3)cs2)cc1OC` [2g, 2-[2-(3,4-Dimethoxybenzylidene)hydrazineyl]-4-[4-(trifluoromethyl)phenyl]thiazole], `COc1ccc(C=NNc2nc(-c3ccc(C(F)(F)F)cc3)cs2)cc1O` [2i, 2-Methoxy-5-[(2-{4-[4-(trifluoromethyl)phenyl]thiazol-2-yl}hydrazineylidene)methyl]phenol] is higher in inhibition at 1 µM: 76.9% for the first, 81% for the second.

In the case of `COc1ccc(O)c(C=NNc2nc(-c3ccc(C(F)(F)F)cc3)cs2)c1` [2j, 4-Methoxy-2-[(2-{4-[4-(trifluoromethyl)phenyl]thiazol-2-yl}hydrazineylidene)methyl]phenol], the inhibition at 1 µM is reported as 62.1%.

Same assay, conditions: read-out: AChE % Inhibition 10^-7 M

Compared with `COc1ccc(C=NNc2nc(-c3ccc(C(F)(F)F)cc3)cs2)cc1OC` [2g, 2-[2-(3,4-Dimethoxybenzylidene)hydrazineyl]-4-[4-(trifluoromethyl)phenyl]thiazole], `COc1ccc(C=NNc2nc(-c3ccc(C(F)(F)F)cc3)cs2)cc1O` [2i, 2-Methoxy-5-[(2-{4-[4-(trifluoromethyl)phenyl]thiazol-2-yl}hydrazineylidene)methyl]phenol] is higher in inhibition at 0.1 µM: 69.2% for the first, 71.8% for the second.

`COc1ccc(O)c(C=NNc2nc(-c3ccc(C(F)(F)F)cc3)cs2)c1` [2j, 4-Methoxy-2-[(2-{4-[4-(trifluoromethyl)phenyl]thiazol-2-yl}hydrazineylidene)methyl]phenol] showed an inhibition at 0.1 µM of 57.4%.

Same assay, conditions: read-out: AChE % Inhibition 10^-8 M

First: COc1ccc(C=NNc2nc(-c3ccc(C(F)(F)F)cc3)cs2)cc1OC [2g, 2-[2-(3,4-Dimethoxybenzylidene)hydrazineyl]-4-[4-(trifluoromethyl)phenyl]thiazole]
Second: COc1ccc(C=NNc2nc(-c3ccc(C(F)(F)F)cc3)cs2)cc1O [2i, 2-Methoxy-5-[(2-{4-[4-(trifluoromethyl)phenyl]thiazol-2-yl}hydrazineylidene)methyl]phenol]
The inhibition at 0.01 µM of the first is higher: 43.1% for the first, 42.7% for the second.

Compound `COc1ccc(O)c(C=NNc2nc(-c3ccc(C(F)(F)F)cc3)cs2)c1` [2j, 4-Methoxy-2-[(2-{4-[4-(trifluoromethyl)phenyl]thiazol-2-yl}hydrazineylidene)methyl]phenol] has an inhibition at 0.01 µM of 40.7%.

Same assay, conditions: read-out: AChE % Inhibition 10^-9 M

Compared with `COc1ccc(C=NNc2nc(-c3ccc(C(F)(F)F)cc3)cs2)cc1OC` [2g, 2-[2-(3,4-Dimethoxybenzylidene)hydrazineyl]-4-[4-(trifluoromethyl)phenyl]thiazole], `COc1ccc(C=NNc2nc(-c3ccc(C(F)(F)F)cc3)cs2)cc1O` [2i, 2-Methoxy-5-[(2-{4-[4-(trifluoromethyl)phenyl]thiazol-2-yl}hydrazineylidene)methyl]phenol] is lower in inhibition at 0.001 µM: 24.9% for the first, 22.2% for the second.

For `COc1ccc(O)c(C=NNc2nc(-c3ccc(C(F)(F)F)cc3)cs2)c1` [2j, 4-Methoxy-2-[(2-{4-[4-(trifluoromethyl)phenyl]thiazol-2-yl}hydrazineylidene)methyl]phenol], the inhibition at 0.001 µM was 25.6%.

Same assay, conditions: read-out: AChE % Inhibition 10^−3 M

`COc1ccc(C=NNc2nc(-c3ccc(C(F)(F)F)cc3)cs2)cc1OC` [2g, 2-[2-(3,4-Dimethoxybenzylidene)hydrazineyl]-4-[4-(trifluoromethyl)phenyl]thiazole] and `COc1ccc(C=NNc2nc(-c3ccc(C(F)(F)F)cc3)cs2)cc1O` [2i, 2-Methoxy-5-[(2-{4-[4-(trifluoromethyl)phenyl]thiazol-2-yl}hydrazineylidene)methyl]phenol] are within error of each other in inhibition at 1000 µM: 93.5 ± 1.63% for the first, 95.2 ± 1.5% for the second.

Compared with `FC(F)(F)c1ccc(-c2csc(NN=Cc3ccc4c(c3)OCO4)n2)cc1` [2h, 2-[2-(Benzo[1,3]dioxol-5-ylmethylene)hydrazineyl]-4-[4-(trifluoromethyl)phenyl]thiazole], `COc1ccc(O)c(C=NNc2nc(-c3ccc(C(F)(F)F)cc3)cs2)c1` [2j, 4-Methoxy-2-[(2-{4-[4-(trifluoromethyl)phenyl]thiazol-2-yl}hydrazineylidene)methyl]phenol] is higher in inhibition at 1000 µM: 77.6 ± 1.76% for the first, 91.3 ± 2.11% for the second.

Compared with `COc1cc(C=NNc2nc(-c3ccc(C(F)(F)F)cc3)cs2)cc(OC)c1OC` [2k, 4-[4-(Trifluoromethyl)phenyl]-2-[2-(3,4,5-trimethoxybenzylidene)hydrazineyl]thiazole], `COc1cc(C=NNc2nc(-c3ccc(C(F)(F)F)cc3)cs2)cc(OC)c1O` [2l, 2,6-Dimethoxy-4-[(2-{4-[4-(trifluoromethyl)phenyl]thiazol-2-yl}hydrazineylidene)methyl]phenol] is lower in inhibition at 1000 µM: 65.3 ± 1.04% for the first, 62.8 ± 1.28% for the second.

Same assay, conditions: read-out: AChE % Inhibition 10^−4 M

First: COc1ccc(C=NNc2nc(-c3ccc(C(F)(F)F)cc3)cs2)cc1OC [2g, 2-[2-(3,4-Dimethoxybenzylidene)hydrazineyl]-4-[4-(trifluoromethyl)phenyl]thiazole]
Second: COc1ccc(C=NNc2nc(-c3ccc(C(F)(F)F)cc3)cs2)cc1O [2i, 2-Methoxy-5-[(2-{4-[4-(trifluoromethyl)phenyl]thiazol-2-yl}hydrazineylidene)methyl]phenol]
The inhibition at 100 µM of the first is lower: 88.3 ± 1.6% for the first, 92.1 ± 1.8% for the second.

Compared with `FC(F)(F)c1ccc(-c2csc(NN=Cc3ccc4c(c3)OCO4)n2)cc1` [2h, 2-[2-(Benzo[1,3]dioxol-5-ylmethylene)hydrazineyl]-4-[4-(trifluoromethyl)phenyl]thiazole], `COc1ccc(O)c(C=NNc2nc(-c3ccc(C(F)(F)F)cc3)cs2)c1` [2j, 4-Methoxy-2-[(2-{4-[4-(trifluoromethyl)phenyl]thiazol-2-yl}hydrazineylidene)methyl]phenol] is higher in inhibition at 100 µM: 41.9 ± 0.976% for the first, 84.9 ± 1.37% for the second.

Going from `COc1cc(C=NNc2nc(-c3ccc(C(F)(F)F)cc3)cs2)cc(OC)c1OC` [2k, 4-[4-(Trifluoromethyl)phenyl]-2-[2-(3,4,5-trimethoxybenzylidene)hydrazineyl]thiazole] to `COc1cc(C=NNc2nc(-c3ccc(C(F)(F)F)cc3)cs2)cc(OC)c1O` [2l, 2,6-Dimethoxy-4-[(2-{4-[4-(trifluoromethyl)phenyl]thiazol-2-yl}hydrazineylidene)methyl]phenol], the inhibition at 100 µM falls from 40.8 ± 0.94% to 35.4 ± 0.895%.
